Reference: US20210318306A1, “Compositions for and Methods of Neutralizing Lipopolysaccharide Toxicity and Methods of Identifying the Same” (priority 2020, published 2021)
“And” between values parts separate entries of the source, which are not always exact repeats. Equal values may be shown once. “Also recorded” adds a separate entry of the source.

Columns and labels:
Format in all cases: cell-based, human
HEK-Blue hTLR4 cells [1] = assay: IL-8 dose response in HEK-Blue hTLR4 cells with P.g. LPS 1 μg/ml and 3X-24X dilutions of simple solutions (Example 4)
Experimental: (§1) HEK-Blue hTLR4 cells (Invivogen, cat #hkb-htlr4) were cultured in a DMEM culture medium supplemented with 10% FBS and 1% penstrep at 37° C. with 5% CO2. LPS from Porphyromonas gingivalis (P.g. LPS; Invivogen, cat #tlrl-pglps and cat #tlrl-ppglps) activates TLR4 receptor and downstream inflammation in HEK-Blue hTLR4 cells. P.g. LPS is co-incubated with HEK-Blue hTLR4 cells in the absence or presence of the simple solutions. Standard and ultrapure P.g. LPS were both used due to ultrapure being a specific ligand for the TLR4 receptor while standard LPS is a ligand for both TLR2 and TLR4.
(§2) The simple solutions a) Zinc Oxide (ZnO), b) Zinc Citrate (ZnCitrate), c) Zinc Oxide+Zinc Citrate (Dual Zinc; DZ), d) Dual Zinc+Arginine (DZA, zinc oxide, zinc citrate and arginine), and e) L-Arginine (Arg) were diluted at different concentrations with culture medium.
2) experiments using 3×, 6×, 12×, and 24× dilution fold of the simple solutions (see Table 6 below).
(§3) HEK-Blue hTLR4 cells were plated in 96-well plates and grown until confluent at 37° C. and 5% CO2 in HEK-blue selection media (DMEM with 10% FBS, 1% penicillin-streptomycin, and antibiotics for HEK-blue selection (Invivogen, cat #hb-sel)). Cells were co-incubated overnight with varying concentrations of different zinc actives as well as arginine and stimulated with either 0.1 μg/mL standard P. gingivalis LPS or 1 μg/mL ultrapure P. gingivalis LPS. Cell supernatants were collected for human inflammation cytokine panels using Multiplex and ELISA analysis.
(§4) Multiplex analysis was performed using the MILLIPLEX MAP Human Cytokine/Chemokine Magnetic Bead Panel—Immunology Multiplex Assay for IL-1, IL-6, IL-8, TNFα, and GM-CSF (Millipore Sigma, cat #HCYTOMAG-60K).
In order to understand the role of Arginine in the inhibition of LPS induced inflammation, a dose response experiment was performed using ultrapure P.g. LPS, which only specifically targets TLR4 receptor, in order to maximize the activation of NF-kB and expression of IL-8.
The testing samples were prepared as the stock simple solutions. […] The first serial dilution was made 3 times with water, a dilution factor simulating dilution of toothpastes while brushing. Additional serial dilutions were made by 2-fold of the first dilution to study dose response effect.

HEK-TLR4 cells = assay: P. gingivalis LPS-induced cytokine secretion by HEK-TLR4 cells, Luminex 5-plex magnetic bead panel (Example 2)
Experimental: Commercially available HEK-Blue TLR4 cells (Invitrogen) are recombinant HEK 293 cells that have been transformed with DNA that encodes TLR4 that is expressed and present on the cell surface. HEK-Blue TLR4 cells are grown ion culture and used can be used in experimental assays to identify test compositions that modulate inflammation pathways stimulated by TLR4-LPS interaction.
Initial for LPS and zinc-containing starting solutions were made as follows. An LPS starting solution was prepared as follows: a […] solution of LPS was prepared using 2 μl of 1 mg/ml LPS and 10 ml media. Multiple zinc starting solutions were each prepared using media as diluent: a) 20 mM zinc oxide, b) 2 mM zinc oxide, c) 20 mM zinc citrate, d) 2 mM zinc citrate, e) 20 mM of a composition containing a 2:1 mixture of zinc oxide and zinc citrate and f) 2 mM of a composition containing a 2:1 mixture of zinc oxide and zinc citrate. The starting solutions were used to prepare various test samples.
In some embodiments, control assays include “Untreated”, in which eight Zinc test samples without LPS were made: […], 10 mM zinc oxide+zinc citrate, 1 mM zinc oxide+zinc citrate, 10 mM zinc oxide+zinc citrate+arginine and 1 mM zinc oxide+zinc citrate+arginine, The test samples without LPS were prepared by diluting the zinc starting solutions with equal parts media. Eight test samples with LPS were made: […], […], […], […], 10 mM zinc oxide+zinc citrate LPS, 1 mM zinc oxide+zinc citrate LPS, 10 mM zinc oxide+zinc citrate+arginine LPS and 1 mM zinc oxide+zinc citrate+arginine LPS. The test samples with LPS were prepared by diluting the zinc starting solutions with equal parts LPS starting solution.
Cells were grown to 70-80% confluent in a 96 well plate. 100 uL of a test sample was added to a well. Cells with test sample were incubated overnight. Media was collected from each well and transferred to a corresponding well in a 96-well plate. Assays to measure proinflammatory cytokines including IL-8 secretion were performed for each well.
Inflammation markers in supernatants collected from HEK-Blue cells co-incubated with Zinc and Zinc+LPS were quantified using Luminex Magpix instrument (MAGPIX-XPON42) and human 5-plex cytokine/chemokine Magnetic bead panel (Millipore HCYTOMAG-60K). The human 5-plex cytokine/chemokine Magnetic bead panel quantifies TNF-α, IL-6, IL-8, IL-1β and GM-CSF.
The Luminex Kit Procedure outlined in the instruction manual for each separate Luminex kit was performed on the supernatants collected from the HEK-Blue cells co-incubated with Zinc test solutions without LPS and Zinc test solutions plus LPS. Quality controls in range for the specified analytes were performed to ensure levels were within the acceptable range.
To run the Luminex Test, all necessary calibration and verification procedures as outlined by the MagPix and xPonent softwares were completed and the appropriate protocol for the assay was selected. The standards were verified to be correct and complete the plate layout of samples was verified. […] The “Avg. Result” was identified in the results generated.
Experiments were conducted to identify compositions that inhibit P. gingivalis LPS-induced IL-8, TNFα, GM-CSF, IL-1β and IL-6 by HEK-TLR4 cells. HEK-TLR4 cells in 96 well plates were contacted with 100 μl samples. IL-8, TNFα, GM-CSF, IL-1β and IL-6 were detected as described above.

HEK-Blue hTLR4 cells [2] = assay: IL-8 in HEK-Blue hTLR4 cell supernatants with standard P.g. LPS and simple solutions at 1 mM vs 10 mM total zinc (Example 4); details: for IL-8 Concentration, replicate: listed as ZnCitrate
Experimental: as §1, §2
1) experiments using 1 mM vs 10 mM total zinc; and
as §3, §4
Testing was performed using total zinc concentrations to normalize the amount the zinc applied in the cell culture medium during co-incubation. Two concentrations of total zinc ion are based on the potential amount of zinc retained on the mouth soft tissue surface.

[3] = 3X dilution of stock simple solution (Table 6) with P.g. LPS (1 μg/ml)
[4] = 6X dilution of stock simple solution (Table 6) with P.g. LPS (1 μg/ml)
[5] = 12X dilution of stock simple solution (Table 6) with P.g. LPS (1 μg/ml)
[6] = 24X dilution of stock simple solution (Table 6) with P.g. LPS (1 μg/ml)
[7] = 300 ppm with 0.1μ/ml P. gingivalis LPS
[8] = 600 ppm with 0.1μ/ml P. gingivalis LPS
[9] = P. gingivalis LPS, 300 and 600 ppm, listed as zinc citrate
[10] = 1 mM total zinc with standard P.g. LPS (0.1 μg/ml)
[11] = 10 mM total zinc with standard P.g. LPS (0.1 μg/ml)

## N=C(N)NCCC[C@H](N)C(=O)O [Arg, L-Arginine]
HEK-Blue hTLR4 cells [1]; [3]
  IL-8 Concentration, Average: 236.6 pg/mL
  IL-8 Concentration, replicate: 248.5 pg/mL and 224.7 pg/mL
HEK-Blue hTLR4 cells [1]; [4]
  IL-8 Concentration, Average: 1480.7 pg/mL
  IL-8 Concentration, replicate: 1649.9 pg/mL and 1311.5 pg/mL
HEK-Blue hTLR4 cells [1]; [5]
  IL-8 Concentration, Average: 2903.3 pg/mL
  IL-8 Concentration, replicate: 2891.2 pg/mL and 2915.5 pg/mL
HEK-Blue hTLR4 cells [1]; [6]
  IL-8 Concentration, Average: 3020.6 pg/mL
  IL-8 Concentration, replicate: 3003.8 pg/mL and 3037.4 pg/mL
HEK-Blue hTLR4 cells [1]; at 3 times dilution of the stock simple solution
  inhibition of IL-8 (in words): strong inhibition
HEK-Blue hTLR4 cells [1]; when dilution folds increase
  inhibition of IL-8 (in words): lose the inhibition of IL-8 gradually

## O=C([O-])CC(O)(CC(=O)[O-])C(=O)[O-].O=C([O-])CC(O)(CC(=O)[O-])C(=O)[O-].[Zn+2].[Zn+2].[Zn+2] [ZnC, zinc citrate]
HEK-Blue hTLR4 cells [1]; [3]
  IL-8 Concentration, Average: 32.1 pg/mL
HEK-Blue hTLR4 cells [1]; 3X dilution of stock simple solution (Table 6) with P.g. LPS (1 μg/ml), listed as ZnCitrate
  IL-8 Concentration, replicate: 35.4 pg/mL and 28.9 pg/mL
HEK-Blue hTLR4 cells [1]; [4]
  IL-8 Concentration, Average: 38.0 pg/mL
HEK-Blue hTLR4 cells [1]; 6X dilution of stock simple solution (Table 6) with P.g. LPS (1 μg/ml), listed as ZnCitrate
  IL-8 Concentration, replicate: 38.1 pg/mL and 37.9 pg/mL
HEK-Blue hTLR4 cells [1]; [5]
  IL-8 Concentration, Average: 51.9 pg/mL
HEK-Blue hTLR4 cells [1]; 12X dilution of stock simple solution (Table 6) with P.g. LPS (1 μg/ml), listed as ZnCitrate
  IL-8 Concentration, replicate: 55.6 pg/mL and 48.1 pg/mL
HEK-Blue hTLR4 cells [1]; [6]
  IL-8 Concentration, Average: 86.6 pg/mL
HEK-Blue hTLR4 cells [1]; 24X dilution of stock simple solution (Table 6) with P.g. LPS (1 μg/ml), listed as ZnCitrate
  IL-8 Concentration, replicate: 88.5 pg/mL and 84.8 pg/mL
HEK-TLR4 cells; [7]
  GM-CSF (raw data, single replicate): <3.2 pg/ml (3×) and 0.633 pg/ml
  IL-1β (raw data, single replicate): 0.4044 pg/mL and 0.5186 pg/mL and 0.1227 pg/mL and 1.331 pg/mL
  IL-6 (raw data, single replicate): <3.2 pg/ml (3×) and 0.5932 pg/ml
  IL-8 (average result): 395.2 pg/mL
  IL-8 (raw data, single replicate): 364.5 pg/mL and 386.8 pg/mL and 285.4 pg/mL and 544.1 pg/mL
  TNF-α (average result): 3.857 pg/mL
  TNFα (raw data, single replicate): 3.113 pg/mL and 2.696 pg/mL and 2.325 pg/mL and 7.294 pg/mL
HEK-TLR4 cells; 300 ppm, without LPS
  GM-CSF (raw data, single replicate): <3.2 pg/mL
  IL-1β (raw data, single replicate): 0.01381 pg/mL and 0.1227 pg/mL and 0.2344 pg/mL and 0.4044 pg/mL
  IL-6 (raw data, single replicate): <3.2 pg/mL
  IL-8 (average result): 294 pg/mL
  IL-8 (raw data, single replicate): 254.6 pg/mL and 237.5 pg/mL and 296.9 pg/mL and 386.9 pg/mL
  TNF-α (average result): 1.616 pg/mL
  TNFα (raw data, single replicate): 1.244 pg/mL and 1.675 pg/mL and 1.373 pg/mL and 2.173 pg/mL
HEK-TLR4 cells; [8]
  GM-CSF (raw data, single replicate): <3.2 pg/mL
  IL-1β (raw data, single replicate): 0.6335 pg/ml and 0.1227 pg/ml (2×) and 0.2344 pg/ml
  IL-6 (raw data, single replicate): <3.2 pg/mL
  IL-8 (average result): 326.3 pg/mL
  IL-8 (raw data, single replicate): 447.3 pg/mL and 287.8 pg/mL and 291.5 pg/mL and 278.6 pg/mL
  TNF-α (average result): 1.596 pg/mL
  TNFα (raw data, single replicate): 2.587 pg/mL and 1.416 pg/mL and 1.266 pg/mL and 1.116 pg/mL
HEK-TLR4 cells; 600 ppm, without LPS
  GM-CSF (raw data, single replicate): 0.1483 pg/ml and 0.07253 pg/ml and <3.2 pg/ml (2×)
  IL-1β (raw data, single replicate): 0.9228 pg/mL and 0.2908 pg/mL and 0.01381 pg/mL and 0.1227 pg/mL
  IL-6 (raw data, single replicate): 0.3248 pg/ml and <3.2 pg/ml (3×)
  IL-8 (average result): 293.9 pg/mL
  IL-8 (raw data, single replicate): 434.5 pg/mL and 262.1 pg/mL and 234.6 pg/mL and 244.6 pg/mL
  TNF-α (average result): 1.172 pg/mL
  TNFα (raw data, single replicate): 2.064 pg/mL and 1.073 pg/mL and 0.6069 pg/mL and 0.9454 pg/mL
HEK-TLR4 cells; P. gingivalis LPS, 300 and 600 ppm, listed as Zinc citrate
  effect on LPS-induced TNFα (in words): more profound inhibition
HEK-TLR4 cells; [9]
  effect on LPS-induced TNFα (in words): significantly reduced
  effect on induction of IL-8 by LPS (in words): significantly reduced; also recorded: profound inhibition
HEK-Blue hTLR4 cells [2]; [10]
  IL-8 Concentration, Average: 34.9 pg/mL
  IL-8 Concentration, replicate: 55.35 pg/mL and 27.95 pg/mL and 26.65 pg/mL and 29.55 pg/mL
HEK-Blue hTLR4 cells [2]; [11]
  IL-8 Concentration, Average: 10.6 pg/mL
  IL-8 Concentration, replicate: 11.85 pg/ml (2×) and 3.15 pg/ml
HEK-Blue hTLR4 cells [2]; at both 1 mM and 10 mM
  IL-8 induced by co-incubation with P.g. LPS (in words): reduced
